{"source": "patent US10722480B2", "about": "“Agent for controlling cells constituting cancer microenvironment or inflammatory microenvironment” (The University of Tokyo, priority 2015, dated 2020)", "key": {"[1]": {"biological_target": "T1, CCR2 (Homo sapiens, UniProt P41597)", "T1 sequence (P41597 1-360 isoform P41597-2)": "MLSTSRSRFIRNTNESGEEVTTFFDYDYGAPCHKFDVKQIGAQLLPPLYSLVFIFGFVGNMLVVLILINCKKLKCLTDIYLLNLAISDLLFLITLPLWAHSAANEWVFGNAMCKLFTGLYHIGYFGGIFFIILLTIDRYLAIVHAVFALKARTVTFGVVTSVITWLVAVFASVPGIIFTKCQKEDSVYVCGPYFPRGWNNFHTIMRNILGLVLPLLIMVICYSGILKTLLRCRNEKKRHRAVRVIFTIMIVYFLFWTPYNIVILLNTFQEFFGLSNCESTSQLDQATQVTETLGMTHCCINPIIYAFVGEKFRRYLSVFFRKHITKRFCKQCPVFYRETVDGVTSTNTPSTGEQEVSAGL", "assay": "Surface plasmon resonance binding to CCR2", "conditions": "SPR"}, "[2]": {"biological_target": "T2, FROUNT protein (Homo sapiens, UniProt Q9BW27)", "T2 construct": "A fragment consisting of the region of the 500th to 656th amino acids of FROUNT protein; made in house", "T2 sequence (Q9BW27 500-656)": "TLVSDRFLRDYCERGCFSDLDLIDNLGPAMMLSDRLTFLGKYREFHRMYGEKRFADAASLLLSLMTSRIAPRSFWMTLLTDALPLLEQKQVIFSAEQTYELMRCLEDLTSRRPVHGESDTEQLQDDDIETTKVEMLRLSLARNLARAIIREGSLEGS", "assay": "NMR analysis of binding to FROUNT fragment", "experimental": "A fragment consisting of the region of the 500th to 656th amino acids of FROUNT protein and a CCR2 pro-C region fragment of 16 residues (SEQ ID NO:3) were prepared, and the binding state between the two fragments and the binding state between FROUNT protein and disulfiram were investigated by NMR analysis."}, "[3]": {"tested_on": "LLC (Lewis lung cancer) cells", "assay": "Subcutaneous tumor growth model (LLC)", "assay_type": "in vivo, mouse", "conditions": "0.8 mg/g in feed, oral, Day 4 to Day 11, vs control group", "experimental": "For evaluation of the subcutaneous tumor growth, LLC (Lewis lung cancer) cells (5×10^5) were suspended in 50 μL of PBS, and subcutaneously administered to the right abdomen of each mouse. The tumor size was measured using a caliper twice a week. The tumor volume was calculated according to the following equation. Tumor volume=(tumor shorter diameter)^2×tumor longer diameter/2 In order to investigate the antitumor effect in the subcutaneous tumor growth model, disulfiram was added in an amount of 0.8 mg/g to CE-2 powder feed (CLEA Japan, Inc.) supplemented with 5% sucrose (Wako), and the mice were fed therewith every day during the period from Day 4 to Day 11 post tumor inoculation. The control group was fed with a feed supplemented with the same amount of sucrose."}, "[4]": {"tested_on": "B16F10 melanoma cells", "assay": "Lung metastasis model (B16F10)", "assay_type": "in vivo, mouse", "conditions": "B16F10 via tail vein, Day 9 post tumor administration", "experimental": "To provide a lung metastasis model, 1×10^6 B16F10 melanoma cells were suspended in 200 μL of PBS, and administered from the tail vein of each of wild-type C57BL/6 mice. Administration of the inhibitor was carried out one day before, 30 minutes before, and one day after the tumor administration. To provide a control, DMSO and a pyrimidine fluoride anticancer drug 5-FU were administered. The mice were euthanized on Day 9 post tumor administration, and PBS was perfused from the left ventricle, followed by isolation of lungs. Visible lung metastatic lesions in the left lobe were counted."}}, "data": [{"compound": "CCN(CC)C(=S)SSC(=S)N(CC)CC", "note": "[DSF, disulfiram]", "values": [{"measurement": "binding to CCR2", "setting": "[1]", "value": "did not bind"}, {"measurement": "interaction with FROUNT / binding site on FROUNT", "setting": "[2]", "value": "directly interact"}, {"measurement": "tumor volume", "setting": "[3]", "value": "significantly smaller"}, {"measurement": "formation of lung metastatic lesions", "setting": "[4]; listed as Disulfiram", "value": "significantly reduced"}, {"measurement": "formation of lung metastatic lesions", "setting": "[4]; listed as disulfiram", "value": "effectively reduced"}]}]}
